# Source: PMC2362650, “Phase I and pharmacokinetic study of the topoisomerase II catalytic inhibitor fostriecin” (British Journal of Cancer, 1999)
# Read-outs that look alike come from different tables or passages of the source.
# Experiment: Plasma and urine pharmacokinetics (HPLC-UV) in patients after 60-min IV infusion
# Assay type: in vivo, human
# Details: human; for Cmax / AUC / MRT / half-life: plasma, intravenous, day 1 course 1; for Cmax: observed value; for MRT: read-out: MRT
# Text: Fostriecin (CI-920) is a topoisomerase (topo) II catalytic activity inhibitor (Boritzki et al, 1988) (Figure 1). This novel class of topo II-targeting drugs is considered of potential value for treatment of patients with tumours resistant to classic topo II poisons, including anthracyclines and podophyllotoxins (Cummings and Smyth, 1993). The nuclear enzyme topo II is essential for the regulation of DNA conformation (reviewed in Osheroff et al, 1991). Central in its action is the formation of a complex with DNA. Stabilization of this complex by topo II poisons induces DNA damage and cell death (Froelich-Ammon and Osheroff, 1995). Decreased complex formation due to decreased topo II levels is considered to be an important mechanism of tumour-resistance to topo II poisons (Beck and Danks, 1991). The topo II catalytic inhibitor fostriecin is expected to have increased activity against tumour cells with low topo II levels and this was confirmed in in vitro studies (De Jong et al, 1991). […] Because of increased toxi- city of fostriecin in dogs compared to mice, a dose below one-third of the one-tenth mouse equivalent LD10, 2 mg m-2 day-1, was chosen as starting dose in humans (Clinical Brochure Fostriecin, 1991). […] We also performed an analysis of the human pharmacokinetics of fostriecin and ex vivo experiments to investigate if the plasma drug concentrations achieved were sufficient to inhibit a tenipo- side-resistant tumour cell line. The maximum tolerated dose (MTD) of fostriecin could not be established because drug supply was stopped prematurely. However, results of this study may provide a basis for continued clinical development of this agent. PATIENTS AND METHODS Patient selection, drug administration and evaluation Patient eligibility criteria were: histologically confirmed diagnosis of a solid tumour, no longer amenable to established forms of treatment; age 18-75 years; Eastern Cooperative Oncology Group (ECOG) performance status 2; life expectancy 12 weeks; no Phase I and pharmacokinetic study of the topoisomerase II catalytic inhibitor fostriecin RS de Jong1, NH Mulder1, DRA Uges2, DTh Sleijfer1, FJP Hoppener4, HJM Groen3, PHB Willemse1, WTA van der Graaf1 and EGE de Vries1 Departments of 1Medical Oncology, 2Pharmacy and Toxicology, and 3Pulmonary Diseases, University Hospital Groningen, The Netherlands; 4EORTC New Drug Development Office, Amsterdam, The Netherlands Summary We conducted a phase I and pharmacokinetic study of the topoisomerase II catalytic inhibitor fostriecin. Fostriecin was administered intravenously over 60 min on days 1-5 at 4-week intervals. Dose was escalated from 2 mg m-2 day-1 to 20 mg m-2 day-1 in 20 patients. Drug pharmacokinetics was analysed with high performance liquid chromatography with UV-detection. Plasma collected during drug administration was tested in vitro for growth inhibition of a teniposide-resistant small-cell lung cancer (SCLC) cell line. The predominant toxicities were elevated liver transaminases (maximum common toxicity criteria (CTC) grade 4) and serum creatinine (maximum CTC grade 2). […] Duration of elevated alanine-amino transferase (ALT) was dose-limiting in one patient at 20 mg m-2. Other frequent toxicities were grade 1-2 nausea/vomiting, fever and mild fatigue. […] A metabolite, most probably dephosphorylated fostriecin, was detected in plasma and urine. […] However, further escalation seems possible and is warranted to achieve potentially effective drug levels. Fostriecin has a short plasma half-life and longer duration of infusion should be considered. […]
# [1] = 2 mg, patient no. 1, 2 mg m-2, one-compartment model
# [2] = 2 mg, patient no. 3, 2 mg m-2, one-compartment model
# [3] = 2 mg, patient no. 4, 2 mg m-2, one-compartment model
# [4] = 4 mg, patient no. 5, 4 mg m-2, one-compartment model
# [5] = 4 mg, patient no. 6, 4 mg m-2, one-compartment model
# [6] = 4 mg, patient no. 7, 4 mg m-2, two-compartment model
# [7] = 6.6 mg, patient no. 11, 6.6 mg m-2, two-compartment model
# [8] = 6.6 mg, patient no. 12, 6.6 mg m-2, two-compartment model
# [9] = 10 mg, patient no. 13, 10 mg m-2, two-compartment model
# [10] = 10 mg, patient no. 15, 10 mg m-2, two-compartment model
# [11] = 12.2 mg, patient no. 16, 12.2 mg m-2, two-compartment model
structure (smiles),measurement,setting,value
C[C@@](O)(/C=C/[C@H]1CC=CC(=O)O1)[C@@H](C[C@@H](O)\C=C/C=C\C=C\CO)OP(=O)(O)O [fostriecin],number of patients with fostriecin detectable in plasma more than 7 h after infusion,in vivo,one
same,Cmax,"2 mg, patient no. 1, 2 mg m-2",0.495 µg/mL
same,AUC,[1],0.739 µg·h/mL
same,MRT,[1],51.6 min
same,half-life,"2 mg, patient no. 1, 2 mg m-2, one-compartment model, read-out: t1/2 (converted)",36 min
same,Cmax,"2 mg, patient no. 3, 2 mg m-2",0.597 µg/mL
same,AUC,[2],0.81 µg·h/mL
same,MRT,[2],46.2 min
same,half-life,"2 mg, patient no. 3, 2 mg m-2, one-compartment model, read-out: t1/2 (converted)",32.4 min
same,Cmax,"2 mg, patient no. 4, 2 mg m-2",0.371 µg/mL
same,AUC,[3],0.468 µg·h/mL
same,MRT,[3],30.6 min
same,half-life,"2 mg, patient no. 4, 2 mg m-2, one-compartment model, read-out: t1/2 (converted)",21 min
same,Cmax,"4 mg, patient no. 5, 4 mg m-2",1.16 µg/mL
same,AUC,[4],1.36 µg·h/mL
same,MRT,[4],43.2 min
same,half-life,"4 mg, patient no. 5, 4 mg m-2, one-compartment model, read-out: t1/2 (converted)",30 min
same,Cmax,"4 mg, patient no. 6, 4 mg m-2",0.956 µg/mL
same,AUC,[5],1.17 µg·h/mL
same,MRT,[5],40.2 min
same,half-life,"4 mg, patient no. 6, 4 mg m-2, one-compartment model, read-out: t1/2 (converted)",27.6 min
same,Cmax,"4 mg, patient no. 7, 4 mg m-2",0.94 µg/mL
same,AUC,[6],1.49 µg·h/mL
same,MRT,[6],116 min
same,half-life,"4 mg, patient no. 7, 4 mg m-2, two-compartment model, read-out: t1/2 (initial) (converted)",15.6 min
same,half-life,"4 mg, patient no. 7, 4 mg m-2, two-compartment model, read-out: t1/2 (terminal) (converted)",122 min
same,Cmax,"6.6 mg, patient no. 11, 6.6 mg m-2",1.4 µg/mL
same,AUC,[7],1.65 µg·h/mL
same,MRT,[7],26.4 min
same,half-life,"6.6 mg, patient no. 11, 6.6 mg m-2, two-compartment model, read-out: t1/2 (initial) (converted)",5.4 min
same,half-life,"6.6 mg, patient no. 11, 6.6 mg m-2, two-compartment model, read-out: t1/2 (terminal) (converted)",28.2 min
same,Cmax,"6.6 mg, patient no. 12, 6.6 mg m-2",1.86 µg/mL
same,AUC,[8],2.45 µg·h/mL
same,MRT,[8],37.8 min
same,half-life,"6.6 mg, patient no. 12, 6.6 mg m-2, two-compartment model, read-out: t1/2 (initial) (converted)",15 min
same,half-life,"6.6 mg, patient no. 12, 6.6 mg m-2, two-compartment model, read-out: t1/2 (terminal) (converted)",73.2 min
same,Cmax,"10 mg, patient no. 13, 10 mg m-2",2.24 µg/mL
same,AUC,[9],3.35 µg·h/mL
same,MRT,[9],55.2 min
same,half-life,"10 mg, patient no. 13, 10 mg m-2, two-compartment model, read-out: t1/2 (initial) (converted)",100 min
same,half-life,"10 mg, patient no. 13, 10 mg m-2, two-compartment model, read-out: t1/2 (terminal) (converted)",55.8 min
same,Cmax,"10 mg, patient no. 15, 10 mg m-2",2.45 µg/mL
same,AUC,[10],3.77 µg·h/mL
same,MRT,[10],60.6 min
same,half-life,"10 mg, patient no. 15, 10 mg m-2, two-compartment model, read-out: t1/2 (initial) (converted)",18 min
same,half-life,"10 mg, patient no. 15, 10 mg m-2, two-compartment model, read-out: t1/2 (terminal) (converted)",83.4 min
same,Cmax,"12.2 mg, patient no. 16, 12.2 mg m-2",3.2 µg/mL
same,AUC,[11],4.23 µg·h/mL
same,MRT,[11],56.4 min
same,half-life,"12.2 mg, patient no. 16, 12.2 mg m-2, two-compartment model, read-out: t1/2 (initial) (converted)",13.2 min
same,half-life,"12.2 mg, patient no. 16, 12.2 mg m-2, two-compartment model, read-out: t1/2 (terminal) (converted)",70.2 min
